Results taken from patent EP0133259A2, “Aminoalkyl-substituted benzene derivatives, process for production thereof, and pharmaceutical composition thereof” (KOWA COMPANY, LTD., priority 1983, dated 1985).
Structures can show the parent of a compound that is named as a salt.

How the values were obtained:
blood pressure = experiment: Hypotensive action (average blood pressure via carotid cannula, conscious animals); assay type: in vivo, Mice
Protocol: Hypotensive action:- • Mice having a body weight of about 30 g (5 per group) were used. Under anaesthesia with pentobarbital, the carotid was […] from each animal. A cannula was inserted into the animal and connected to a pressure transducer. A tracheal cannula was applied, and the animal was fixed on its back. After the animals awoke from anesthesia, their average blood pressures were measured by the pressure transducer.
The drug was orally administered in a dose of 30 mg/kg, and changes in the blood pressure were measured. Physiological saline was administered to a control group.
The drug used in Test Example 2 was the compound prepared in Example 6.

[1] = test system: Chloroform-Induced Arrhythmia; experiment: Activity on chloroform-induced arrhythmia; assay type: in vivo, ICR-strain mice; conditions: 100 mg/kg orally; for Antiarrhythmic activity: Rate of onset of VF / Antiarrhythmic activity: Rate of onset of VT: 10 mice per group; for Antiarrhythmic activity: Rate of onset of VF: ventricular fibrillation after chloroform vapor; for Antiarrhythmic activity: Rate of onset of VT: ventricular tachycardia after chloroform vapor; for Antiarrhythmic activity: Duration of activity: relative to the duration time of Lidocaine (+)
Protocol: Activity on Chloroform-Induced Arrhythmia:-ICR-strain mice having a body weight of 20 to 30 g (10 per group) were used, and the test compound was administered orally in a dose of 100 mg/kg. The mice were put in a 1-liter beaker, and observed for 20 minutes for their symptoms or conditions. Then, they were placed in a vessel saturated with a vapor of chloroform, and the time which elapsed until the animals ceased to breathe was measured. After the stopping of the breathing, the mice were taken out from the vessel and their cardiograms were taken. The rates of onset of ventricular tachycardia (VT) and ventricular fibrillation (VF) and their conditions were observed. The duration of activity was determined by using as a standard the time during which the mice were put in the chloroform- saturated vessel. […] Lidocaine was used as a comparative drug.

| Compound | Average blood pressure (blood pressure; 30 mg/kg orally, 10 minutes after the administration) | Average blood pressure (blood pressure; 30 mg/kg orally, 30 minutes after the administration) | Average blood pressure (blood pressure; 30 mg/kg orally, 60 minutes after the administration) | Average blood pressure (blood pressure; 30 mg/kg orally, 120 minutes after the administration) | Average blood pressure (blood pressure; before administration, 5 mice per group) | Antiarrhythmic activity: Rate of onset of VF [1] | Antiarrhythmic activity: Rate of onset of VT [1] | Antiarrhythmic activity: Duration of activity [1] | Condition ([1]; symptoms observed for 20 minutes, indicated when the same tendency was seen in all subjects) |
| --- | --- | --- | --- | --- | --- | --- | --- | --- | --- |
| Cc1cc(OCCO[N+](=O)[O-])cc(C)c1NC(=O)C(C)N (stereo not drawn) [Example 6, 2-Amino-2',6'-dimethyl-4'-(2-nitroxyethoxy)-propionanilide·hydrochloride] | 73.3 ±8.5 (*) mmHg | 76.4 ±7.8 (*) mmHg | 77.4 ±8.1 (*) mmHg | 80.3 ±8.0 (**) mmHg | 86.3 ±6.8 mmHg | 0/10 | 1/10 | ++ | – |
| Cc1ccc(OCC(F)(F)F)cc1NC(=O)CC(C)N (stereo not drawn) [Example 40, 3-Amino-2'-methyl-5'-(2,2,2-trifluoroethoxy)-butyranilide·hydrochloride] | – | – | – | – | – | 0/10 | 0/10 | +++ | – |
| COc1ccc(OCC(F)(F)F)cc1NC(=O)CC(C)N (stereo not drawn) [Example 3, 3-Amino-2'-methoxy-5'-(2,2,2-trifluoroethoxy)-butyranilide-hemifumarate] | – | – | – | – | – | 0/10 | 2/10 | +++ | – |
| CCN(CC)CC(=O)Nc1c(C)cccc1C [Lidocaine, reference compound] | – | – | – | – | – | 2/10 | 0/10 | + | Weak sedation |
| Cc1ccc(OCC(F)(F)F)cc1NC(=O)C(C)N (stereo not drawn) [Example 38, 2-Amino-2'-methyl-5'-(2,2,2-trifluoroethoxy)-propionanilide] | – | – | – | – | – | 2/10 | 5/10 | + | – |
| COc1ccc(OCCO[N+](=O)[O-])cc1OCC(C)N (stereo not drawn) [Example 4, 1-[2-Methoxy-5-(2-nitroxyethoxy)phenoxy]-2-propanamine.maleate] | – | – | – | – | – | 0/10 | 4/10 | ++ | – |
| CC(N)C(=O)Nc1cc(OCCO[N+](=O)[O-])ccc1F (stereo not drawn) [Example 24, 2-Amino-2'-fluoro-5'-(2-nitroxyethoxy)propionanilide] | – | – | – | – | – | 0/10 | 2/10 | + | – |
| Cc1cc(OCC(F)(F)F)cc(C)c1NC(=O)C(C)N (stereo not drawn) [Example 41, 2-Amino-2',6^1-dimethyl-4^1-(2,2,2-trifluoroethoxy)propionanilide·hydrochloride] | – | – | – | – | – | 1/10 | 0/10 | +++ | – |
| Cc1ccc(OCCO[N+](=O)[O-])cc1NC(=O)CC(C)N (stereo not drawn) [Example 22, 3-Amino-2'-methyl-5'-(2-nitroxyethoxy)butyr.- anilide-hydrochloride] | – | – | – | – | – | 0/10 | 0/10 | ++ | – |
